Results as given in patent publication US11708357B2, “Crystal form of pyrrolidinyl urea derivative and application thereof” (ZHANGZHOU PIEN TZE HUANG PHARMACEUTICAL CO., LTD., priority 2020, dated 2023).

What was measured:
[1] = Solid stability test (XRPD and HPLC purity); assay type: physicochemical
Protocol: Samples placed under high temperature and high humidity conditions were sealed with aluminum foil paper and small holes were punched in the aluminum foil paper to ensure that the sample could fully contact with ambient air; […] Samples placed under high temperature (60° C.) and high humidity (92.5% humidity, room temperature) conditions were sampled and tested (XRPD and purity) on the 5th and 10th day. […] Samples placed under the condition of illumination were sampled and tested when the total illuminance reached 1.2×10^6 Lux·hr.

[2] = In vivo pharmacokinetic study in beagle dogs after single administration; conditions: male, dog, plasma, 10 mg/kg, 10 mpk oral administration
Protocol: Male beagle dogs were used as test animals, the concentration of the compound in blood after single administration was determined to evaluate the pharmacokinetic behavior.
Beagle dogs (Male, 6-12 kg, more than 6 months, Beijing Marshall Biotechnology Co., Ltd.).
The objective of the test was to study the pharmacokinetic characteristics of the test compound in non-rodent after intravenous injection and oral administration. In the experiment, the test compound was prepared into a clear solution or homogeneous suspension and administered to the beagle dogs by single intravenous injection or oral administration. In the intravenous injection group, the menstruum was a certain proportion of dimethyl sulfoxide in HP-β-cyclodextrin solution or a certain proportion of ethanol, polyethylene glycol 400 and physiological saline solution, the mixture was vortexed and subjected to ultrasonic treatment to prepare 2 mg/mL clear solution, then filtered with microporous membrane for later use; in the oral administration group, the menstruum was a certain proportion of dimethyl sulfoxide in HP-β-cyclodextrin solution or a certain proportion of sodium carboxymethyl cellulose solution, the test compound was mixed with the menstruum, vortexed and subjected to ultrasonic treatment to prepare 2 mg/mL homogeneous suspension for later use. After 2 mg/kg intravenous administration or 10 mg/kg oral administration to the Beagle dogs, a certain amount of whole blood samples were collected, centrifuged at 3000 g for 10 minutes, and the supernatant was separated to obtain plasma samples; then an acetonitrile solution containing internal standard with a volume 10 times that of the plasma sample was added to precipitate proteins, and then centrifuged; the supernatant was separated for analysis; LC-MS/MS analysis method was used to quantitatively analyze the blood drug concentration, and Phoenix WinNonlin software (Pharsight, USA) was used to calculate the pharmacokinetic parameters, such as peak concentration, time to peak concentration, clearance rate, half-life, area under the concentration-time curve, bioavailability, etc.
(§1) Among them, C0 is the initial concentration, T1/2 is the elimination half-life, Vdss is the steady-state apparent volume of distribution, Cl is the total clearance rate, AUC0-inf is the area under the plasma drug concentration-time curve from time 0 to infinity, Cmax is the peak concentration, Tmax is the time to peak concentration.

[3] = Hygroscopicity by dynamic vapor sorption (DVS); assay type: physicochemical; conditions: 25° C. and 80% RH
Protocol: Instrument model: Intrinsic dynamic vapor sorption instrument
Detection conditions: A sample (10-30 mg) was placed in a DVS sample tray for detection.
Balance: dm/dt=0.002%/min (shortest: 10 min, longest: 180 min)

[4] = In vivo pharmacokinetic study in rats after single administration; conditions: male, Sprague Dawley, rat, plasma, 300 mg/kg, 300 mpk oral administration
Protocol: Male SD rats were used as test animals, and the concentration of the compound in blood was determined after single administration to evaluate the pharmacokinetic behavior.
Sprague Dawley rats (male, 200-300 g, 7-9 weeks, Shanghai Charles River Laboratory Animal Co., Ltd.)
The pharmacokinetic characteristics of the test compound in rodents after intravenous injection and oral administration were tested by standard protocols, in the experiment, the test compound was prepared into a clear solution or homogeneous suspension, and administered to the rats by single intravenous injection and oral administration. In the intravenous injection group, the menstruum was a certain proportion of ethanol and physiological saline solution or a certain proportion of dimethyl sulfoxide in HP-β cyclodextrin solution (the pH was adjusted to 3-4), the mixture was vortexed and stirred to prepare 1 mg/mL clear solution, then filtered with microporous membrane for later use; in the oral administration group, the menstruum was a certain proportion of sodium carboxymethyl cellulose solution or a certain proportion of dimethyl sulfoxide in HP-β cyclodextrin solution (the pH was adjusted to about 4), after the test compound was mixed with the solvent, the mixture was vortexed and stirred to prepare 30 mg/mL homogeneous suspension for later use. After 2 mg/kg intravenous administration or 300 mg/kg oral administration to rats, a certain amount of whole blood samples were collected, centrifuged at 3000 g for 15 minutes, the supernatant was separated to obtain the plasma samples; then an acetonitrile solution containing internal standard with a volume 3 times that of the plasma sample was added to precipitate proteins, and then centrifuged; the supernatant was separated, and water with a volume twice that of the supernatant was added to the supernatant, which was then centrifuged again; the supernatant was collected for analysis; LC-MS/MS analysis method was used to quantitatively analyze the blood drug concentration, and Phoenix WinNonlin software (Pharsight, USA) was used to calculate the pharmacokinetic parameters, such as peak concentration, time to peak concentration, clearance rate, half-life, area under the concentration-time curve, bioavailability, etc.
as §1

[5] = 40° C., relative humidity 75%, opened, 30 days
[6] = 40° C., relative humidity 75%, opened, 60 days
[7] = 60° C., relative humidity 75%, opened, 30 days
[8] = 60° C., relative humidity 75%, opened, 60 days
[9] = High humidity (room temperature/relative humidity 92.5%, opened), 5 days
[10] = High humidity (room temperature/relative humidity 92.5%, opened), 10 days
[11] = High temperature (60° C., opened), 5 days
[12] = High temperature (60° C., opened), 10 days
[13] = Illumination (total illuminance 1.2 × 10^6 Lux · hr/near ultraviolet 200 w · hr/m^2, opened)

Crystal form (XRPD) ([1]; 0 day (initial)): Crystal form E | Purity ([1]; 0 day (initial)): 98.75% | Crystal form (XRPD) [1, 5]: Crystal form E | Purity [1, 5]: 98.14% | Crystal form (XRPD) [1, 6]: Crystal form E | Purity [1, 6]: 98.06% | Crystal form (XRPD) [1, 7]: Crystal form E | Purity [1, 7]: 98.17% | Crystal form (XRPD) [1, 8]: Crystal form E | Purity [1, 8]: 98.22% | Crystal form (XRPD) [1, 9]: Crystal form E | Purity [1, 9]: 98.62% | Crystal form (XRPD) [1, 10]: Crystal form E | Purity [1, 10]: 98.72% | Crystal form (XRPD) [1, 11]: Crystal form E | Purity [1, 11]: 98.74% | Crystal form (XRPD) [1, 12]: Crystal form E | Purity [1, 12]: 98.74% | Crystal form (XRPD) [1, 13]: Crystal form E | Purity [1, 13]: 98.83% | AUC(0-inf) [2]: 26.4 µM·h | Cmax [2]: 10.4 µM | Tmax [2]: 45 min | bioavailability [2]: 113% | half-life [2]: 57 min | Classification of hygroscopicity [3]: hygroscopic (15% > ΔW % ≥ 2%) | hygroscopic weight gain ΔW [3]: 6.228% | AUC(0-inf) [4]: 276 µM·h | Cmax [4]: 48.5 µM | Tmax [4]: 45 min | bioavailability [4]: 70.5% | half-life [4]: 195 min
SMILES: COCCN1C[C@@H](n2ccc(F)c2)[C@H](NC(=O)Nc2c(C)c(-c3cnc(C4(F)COC4)nc3)nn2-c2ccccc2)C1
